Data as given in PubChem BioAssay (NCI).
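In this assay, cells in 96-well plates receive the compound at five concentrations for 48 hours. Endpoints are linearly interpolated between the surrounding concentrations. GI50: concentration for 50% inhibition of growth. TGI denotes the concentration required for complete inhibition of growth.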

Legend:
Assay in all cases: inhibition of tumour cell growth, NCI panel, 48 h
CCRF-CEM leukemia = system: CCRF-CEM leukemia
ACHN renal = system: ACHN renal
BT-549 breast = system: BT-549 breast
NCI-H522 lung = system: NCI-H522 lung
SK-MEL-5 melanoma = system: SK-MEL-5 melanoma
K-562 leukemia = system: K-562 leukemia
A498 renal = system: A498 renal
NCI-H23 lung = system: NCI-H23 lung
SF-539 CNS = system: SF-539 CNS
SF-295 CNS = system: SF-295 CNS

SMILES	GI50 (CCRF-CEM leukemia)	TGI (CCRF-CEM leukemia)	GI50 (ACHN renal)	TGI (ACHN renal)	GI50 (BT-549 breast)	TGI (BT-549 breast)	GI50 (NCI-H522 lung)	TGI (NCI-H522 lung)	GI50 (SK-MEL-5 melanoma)	TGI (SK-MEL-5 melanoma)	GI50 (K-562 leukemia)	TGI (K-562 leukemia)	GI50 (A498 renal)	TGI (A498 renal)	GI50 (NCI-H23 lung)	TGI (NCI-H23 lung)	GI50 (SF-539 CNS)	TGI (SF-539 CNS)	GI50 (SF-295 CNS)	TGI (SF-295 CNS)
COc1ccc2nc3cccc([N+](=O)[O-])c3c(NC(C)CN(C)C)c2c1 (centres undefined)	2.21 µM	7.62 µM	1.58 µM	7.23 µM	2.86 µM	6.74 µM	0.69 µM	2.18 µM	1.18 µM	2.49 µM	1.56 µM	4.03 µM	2.09 µM	4.59 µM	2.1 µM	5.33 µM	2.66 µM	6.46 µM	2.37 µM	10.1 µM
COc1ccc(-c2[nH]nc(N)c2-c2cc(OC)c(OC)c(OC)c2)cc1	0.0325 µM	–	0.0806 µM	> 100 µM	0.0873 µM	4.29 µM	< 0.0133 µM	0.62 µM	0.0381 µM	0.725 µM	0.0315 µM	> 100 µM	0.021 µM	0.0832 µM	0.0422 µM	> 32.1 µM	0.0246 µM	0.0665 µM	0.0248 µM	> 100 µM
O=C(O)c1cn(C2CC2)c2cc(N3CCN(Cc4c(O)ccc5ccccc45)CC3)c(F)cc2c1=O	20.5 µM	> 100 µM	29.6 µM	> 100 µM	3.5 µM	48.7 µM	2.82 µM	> 100 µM	5.45 µM	> 100 µM	> 100 µM	> 100 µM	1.48 µM	4.47 µM	4.63 µM	> 100 µM	2.1 µM	4.9 µM	8.22 µM	> 100 µM
NCCSC(c1ccccc1)(c1ccccc1)c1ccccc1	1.85 µM	6 µM	1.48 µM	11.2 µM	3.51 µM	14.2 µM	0.369 µM	1.7 µM	1.01 µM	2.25 µM	0.322 µM	1.61 µM	1.03 µM	8.39 µM	3.38 µM	13.6 µM	1.36 µM	3.21 µM	0.967 µM	2.76 µM
NC(N)=Nc1ccc(/C=C2\C=Cc3ccccc32)cc1	2.09 µM	4.9 µM	1.91 µM	3.56 µM	3.98 µM	26.5 µM	2.39 µM	5.79 µM	4.5 µM	17.8 µM	2.66 µM	> 22 µM	4.83 µM	19.2 µM	2.95 µM	10.4 µM	3.66 µM	9.66 µM	7.28 µM	24.6 µM
O=[N+]([O-])c1oc2ccc3ccccc3c2c1CCO	–	39.9 µM	–	3.68 µM	–	8.71 µM	–	3.77 µM	–	1.98 µM	–	> 100 µM	–	0.72 µM	–	17 µM	–	13.4 µM	–	7.04 µM
CCCN(CCC)c1ccc(C=O)c(C)c1	46.8 µM	> 100 µM	49.4 µM	> 100 µM	26.9 µM	> 100 µM	37.4 µM	> 100 µM	21.2 µM	> 61.9 µM	68.7 µM	> 100 µM	1.27 µM	3.28 µM	35.8 µM	> 100 µM	> 70.5 µM	> 100 µM	29.1 µM	> 100 µM
Cc1sc2c(c1C)C(c1ccc(Cl)cc1)=N[C@@H](CC(=O)NCCCN1CCN(C)CC1)c1nnc(C)n1-2	1.6 µM	> 100 µM	17.1 µM	> 100 µM	3.51 µM	> 100 µM	0.0746 µM	> 100 µM	6.36 µM	> 100 µM	0.299 µM	> 100 µM	0.271 µM	7.78 µM	5.67 µM	> 100 µM	0.607 µM	> 100 µM	8.12 µM	> 100 µM
